Test [1] deals with HIV-1 virion production in 293A cells. The test can be described thus: Virus-like particle (VLP) detection, 293A cells transfected with pNL4.3luc, CA Western blot. As to conditions: 20-40 micromolar, 48 hours, FIG. 4C. Background: In western blotting, separated proteins are transferred to a membrane and probed.
Test [2] concerns the target T1, interaction between HIV-1 MA and arginyl-tRNA synthetase (RRS) (Homo sapiens, UniProt P54136).
T1 construct: endogenous in cells; host or cells: 293A-MA-FH cells (RRS endogenous; MA-flag stably expressed)
T1 sequence (P54136 1-660): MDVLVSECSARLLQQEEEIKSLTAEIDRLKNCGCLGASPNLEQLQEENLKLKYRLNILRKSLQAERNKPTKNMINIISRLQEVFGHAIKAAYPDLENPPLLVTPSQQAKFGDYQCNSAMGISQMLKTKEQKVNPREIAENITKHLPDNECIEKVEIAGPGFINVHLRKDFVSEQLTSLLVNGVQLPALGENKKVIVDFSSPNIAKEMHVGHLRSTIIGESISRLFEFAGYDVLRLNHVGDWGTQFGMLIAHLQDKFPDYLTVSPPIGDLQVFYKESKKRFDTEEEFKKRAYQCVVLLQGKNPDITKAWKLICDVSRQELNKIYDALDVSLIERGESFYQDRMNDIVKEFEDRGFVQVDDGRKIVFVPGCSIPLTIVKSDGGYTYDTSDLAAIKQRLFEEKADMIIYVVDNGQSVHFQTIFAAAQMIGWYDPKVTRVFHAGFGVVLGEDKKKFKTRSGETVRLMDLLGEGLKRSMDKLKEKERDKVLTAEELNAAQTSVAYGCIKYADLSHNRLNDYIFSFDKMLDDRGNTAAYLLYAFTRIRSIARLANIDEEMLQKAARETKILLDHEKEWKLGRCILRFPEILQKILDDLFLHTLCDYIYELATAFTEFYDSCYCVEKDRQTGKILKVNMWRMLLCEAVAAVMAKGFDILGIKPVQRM
Put plainly: Co-immunoprecipitation of RRS with HIV-1 MA (control). Type of test: binding. Here is the method:
As a control, the interaction between MA and another MA-interacting protein, arginyl-tRNA synthetase (RRS), a subunit of the aminoacyl-tRNA synthetase complex, was also evaluated. The coimmunoprecipitation of RRS and HIV-1 MA was not affected by addition of myristic acid (FIG. 1D).

The target in another test is T2, human HO-2 (Homo sapiens, UniProt P30519).
T2 construct: The HO-2 gene fragment encoding amino acid residues 30-242 was cloned into a pET28a vector; made in house; host or cells: Escherichia coli BL21 (DE3) Star
T2 sequence (P30519 30-242): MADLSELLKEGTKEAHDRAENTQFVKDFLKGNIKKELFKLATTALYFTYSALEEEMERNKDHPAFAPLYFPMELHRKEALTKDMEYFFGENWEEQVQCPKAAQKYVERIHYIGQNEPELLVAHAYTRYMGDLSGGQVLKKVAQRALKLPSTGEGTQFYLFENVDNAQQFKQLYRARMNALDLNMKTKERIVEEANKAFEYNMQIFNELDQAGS
The test can be described thus: Fatty acid binding to HO-2 (crystal structure). The settings on record: FIG. 2E. Here is the method:
To make the myristate complex, sodium myristate was dissolved in water at 50° C., and mixed with 20 mg/ml protein solution and incubated at 37° C. water bath for 30 min. The complex solution was then used to set up crystallization by mixing with (0.1 M Bis-Tris, (pH 5.5), 28% (w/v) polyethylene glycol 550 monomethyl ether, and 5 mM MgCl2). Crystals were directly flash-frozen in liquid nitrogen.
The laurate complex crystals were obtained by soaking apo crystals in well solution with 5 mM sodium laurate overnight and transferred to well solution with 35% (w/v) of precipitant before flash-frozen in liquid nitrogen. The crystals belong to space group P212121 and there are four protein molecules in the asymmetric unit.
X-ray diffraction data sets were collected at beamline 24-ID-E of the Advanced Photon Source (APS). The data were processed with the HKL package (Otwinowski and Minor, 1997). The structures were solved by molecular replacement using entry 2Q32 from the Protein Data Bank as the model. The myristate and laurate were manually added with Coot (Emsley and Cowtan, 2004) and refined with Phenix (Adams et al., 2002).
The crystal structure was also determined at 2.1 Å resolution of human HO-2 in complex with the C12 fatty acid laurate (FIG. 2E, Table 1B). The crystal was isomorphous to that of the myristate complex. […]

The structures appear in SMILES notation.

Regarding `C=CC1=C(C)C2=Cc3c(C=C)c(C)c4[n]3[Sn]([Cl])([Cl])[n]3c(c(C)c(CCC(=O)O)c3=CC3=NC(=C4)C(C)=C3CCC(=O)O)=CC1=N2` [SnPPIX, tin protoporphyrin IX dichloride], the “virus yield (CA levels in virions)” value in test [1] was “dramatic increases in virus yield”. The “interaction between HIV-1 MA and RRS” value in test [2] (increasing concentrations of SnPPIX, FIG. 4B) is on record as “no effect”.

As to `CCCCCCCCCCCC(=O)O` [laurate], on human HO-2, the “binding to HO-2” value is recorded as “could indeed bind”.

For `CCCCCCCCCCCCCC(=O)O` [myristic acid], the “coimmunoprecipitation of RRS and HIV-1 MA” value in test [2] (myristic acid added to cell lysates, FIG. 1D) is “not affected”.
